Data reported in PMC4332848 (Clinical cancer research : an official journal of the …, 2013).
“And” between values parts separate entries of the source, which are not always exact repeats. Equal values may be shown once. Read-outs that look alike come from different tables or passages of the source.

Legend:
AML / acute leukemias = settings: cited from earlier work
[1] = Serum vorinostat pharmacokinetics; type: in vivo, human; settings: for AUC(0-t): AUC0-8 h; for AUC(0-inf): AUC0-inf
buccal mucosal cells = experiment: Cell-cycle phase distribution, pre vs on vorinostat; type: in vivo, human
leukemic blasts = experiment: as above; type: in vivo, human; settings: Mean
Buccal mucosa cells = experiment: TRAIL death receptor protein expression, pre vs on vorinostat; type: in vivo, human
Leukemia blast cells = experiment: TRAIL death and decoy receptor protein expression, pre vs on vorinostat; type: in vivo, human
HL-60/W [2] = experiment: Control studies for DR or DcR expression; type: cell-based, human
BCRP [3] = experiment: BCRP transcripts in patient leukemic blasts; type: in vivo, human; settings: paired t test, 8 paired samples
BCRP [4] = experiment: Functional expression of BCRP in patient blasts; type: in vivo, human; settings: paired t test, 6 paired samples
[5] = test system: patients with poor-risk or advanced acute leukemias
Pgp (ABCB1) = settings: individual patients' blasts on vorinostat; D < 0.15 = no overexpression
Pgp = Pgp (Homo sapiens, UniProt P08183); settings: paired t test, 6 paired samples
Sequence of Pgp (P08183 whole entry): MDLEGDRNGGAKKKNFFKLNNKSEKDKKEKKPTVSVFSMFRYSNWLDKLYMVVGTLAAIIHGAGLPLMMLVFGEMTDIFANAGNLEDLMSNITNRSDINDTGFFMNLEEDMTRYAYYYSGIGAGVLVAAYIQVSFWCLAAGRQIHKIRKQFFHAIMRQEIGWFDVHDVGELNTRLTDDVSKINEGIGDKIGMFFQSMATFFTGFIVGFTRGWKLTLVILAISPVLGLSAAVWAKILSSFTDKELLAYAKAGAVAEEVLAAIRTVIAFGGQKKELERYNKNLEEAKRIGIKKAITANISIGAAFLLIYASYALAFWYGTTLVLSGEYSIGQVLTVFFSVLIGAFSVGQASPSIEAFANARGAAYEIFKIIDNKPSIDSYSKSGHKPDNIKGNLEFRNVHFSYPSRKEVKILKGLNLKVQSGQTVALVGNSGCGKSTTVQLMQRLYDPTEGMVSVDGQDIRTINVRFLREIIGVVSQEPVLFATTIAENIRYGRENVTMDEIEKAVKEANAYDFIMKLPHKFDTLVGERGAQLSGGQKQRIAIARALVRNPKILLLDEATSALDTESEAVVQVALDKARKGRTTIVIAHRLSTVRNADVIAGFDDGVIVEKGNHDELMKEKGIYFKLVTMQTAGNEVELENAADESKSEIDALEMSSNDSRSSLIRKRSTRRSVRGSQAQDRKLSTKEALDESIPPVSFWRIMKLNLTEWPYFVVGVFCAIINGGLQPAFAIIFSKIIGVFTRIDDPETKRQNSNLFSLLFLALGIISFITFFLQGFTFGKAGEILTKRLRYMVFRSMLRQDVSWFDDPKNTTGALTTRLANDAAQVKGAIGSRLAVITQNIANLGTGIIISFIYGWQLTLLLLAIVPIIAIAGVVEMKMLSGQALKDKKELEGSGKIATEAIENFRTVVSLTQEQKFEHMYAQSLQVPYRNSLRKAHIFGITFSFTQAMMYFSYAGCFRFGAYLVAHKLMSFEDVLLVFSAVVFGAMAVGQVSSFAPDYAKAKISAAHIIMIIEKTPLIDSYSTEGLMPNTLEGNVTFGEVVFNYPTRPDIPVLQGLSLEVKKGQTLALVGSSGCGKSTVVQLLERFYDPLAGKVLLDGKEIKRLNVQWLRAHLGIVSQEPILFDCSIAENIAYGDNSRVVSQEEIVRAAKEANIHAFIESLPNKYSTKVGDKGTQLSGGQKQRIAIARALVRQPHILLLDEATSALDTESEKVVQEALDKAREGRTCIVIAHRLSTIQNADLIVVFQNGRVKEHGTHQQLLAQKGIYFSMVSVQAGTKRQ

HL-60/W [6] = settings: HL-60 cells, 24-hour exposure to 1 μmol/L vorinostat; cited from earlier work
[7] = test system: human leukemia cell lines; settings: cited from earlier work
BCRP (ABCG2) = experiment: BCRP protein in patient leukemic blasts
[8] = human, serum, oral, 200 mg, Median, N 21

For `Nc1ccccc1NC(=O)c1ccc(CNC(=O)OCc2cccnc2)cc1` [MS-275], the “clinical responses using classical criteria” value (AML / acute leukemias; phase I study, 38 adults with advanced acute leukemias) is listed as “no clinical responses”.

In the case of `CCCC(CCC)C(=O)O` [valproic acid], the response rate (AML / acute leukemias; frail or elderly patients with AML, valproic acid alone or in combination with all-trans retinoic acid) is listed as 5%.

With `O=C(CCCCCCC(=O)Nc1ccccc1)NO` [vorinostat, suberoylanilide hydroxamic acid] the Cmax ([1]; DL2, average) was 165.2 ± 64.1 ng/mL, the Cl/F ([1]; Geometric mean, N 20) was 277 L and the Vd/F ([1]; Geometric mean, N 20) was 829 L/h. It also gave a Cl/F ([1]; Mean, N 20, serum, first 200 mg oral dose day 1) of 300 L, a Cmax ([1]; Mean, N 21, serum, first 200 mg oral dose day 1) of 185 ng/mL and a Cl/F ([1]; Median, N 20) of 265 L. The Vd/F ([1]; Median, N 20) was 689 L/h, the t1/2 ([1]; Median, N 20) was 1.7 h and the AUC(0-t) ([1]; human, serum, oral, 200 mg, Geometric mean, N 21) was 591 ng·h/mL. It also gave an AUC(0-t) [1, 8] of 623 ng·h/mL, an AUC(0-inf) ([1]; human, serum, oral, 200 mg, Geometric mean, N 20) of 722 ng·h/mL and an AUC(0-inf) ([1]; human, serum, oral, 200 mg, Median, N 20) of 757 ng·h/mL. It also gave a Cmax ([1]; human, serum, oral, 200 mg, Cmax, 65 years or older age group, average) of 203 ± 101 ng/mL, a Cmax ([1]; human, serum, oral, 200 mg, Cmax, DL1, average) of 197 ± 90.4 ng/mL and a Cmax ([1]; human, serum, oral, 200 mg, Cmax, less than 65 years of age cohort, average) of 174 ± 174 ng/mL. It also gave a Tmax ([1]; human, serum, oral, 200 mg, 65 years or older age group, average) of 1.6 ± 1.1 h, a Tmax ([1]; human, serum, oral, 200 mg, DL2, average) of 3.5 ± 2 h and a Tmax [1, 8] of 2 h. For the same compound, the Tmax ([1]; human, serum, oral, 200 mg, less than 65 years of age cohort, average) was 3.3 ± 3.3 h, the half-life ([1]; human, serum, po, 200 mg) was 2.5 h and the Tmax ([1]; human, serum, po, 200 mg, Mean, N 21, serum, first 200 mg oral dose day 1) was 2.6 h. For the same compound, the “% G0–G1” value (buccal mucosal cells; Mean, N= 17, On vorinostat (days 4 to 7), Pre mean 77.99, P 0.5705) was 79.85%, the “% G2–M” value (buccal mucosal cells; Mean, N= 17, On vorinostat, Pre mean 2.14, P 0.2586) was 3.26% and the “%S” value (buccal mucosal cells; Mean, N= 17, On vorinostat, Pre mean 11.49, P 0.9168) was 11.30%. For the same compound, the “% sub-G0–G1” value (buccal mucosal cells; Mean, N= 17, On vorinostat, Pre mean 11.74, P 0.1942) was 7.79%, the “alteration in any cell-cycle phase upon treatment” value (buccal mucosal cells; pre vs on vorinostat, 17 patients) was “no statistically significant alteration” and the “% G0–G1” value (leukemic blasts; N = 16, On vorinostat (days 4 to 7), Pre mean 83.97, P 0.1519) was 87.60%. The “% G2–M” value (leukemic blasts; N = 16, On vorinostat, Pre mean 3.83, P 0.7556) was 3.55%, the “% sub-G0/G1” value (leukemic blasts; N = 16, On vorinostat, Pre mean 4.29, P 0.0693) was 2.60% and the “%S” value (leukemic blasts; N = 16, On vorinostat, Pre mean 9.22, P 0.2841) was 7.17%. The “Percentage of cells expressing DR5” value (Buccal mucosa cells; Mean, N 4, On vorinostat, Pre mean 26.46, P 0.9316) was 25.98 (4), the “Percentage of cells expressing DR4” value (Buccal mucosa cells; Mean, N 4, On vorinostat, Pre mean 27.90, P 0.5873) was 41.39 (4) and the “DR4 or DR5 expression, pre vs on vorinostat” value (Buccal mucosa cells; limited samples) was “no statistically significant differences”. The “Percentage of cells expressing DcR2” value (Leukemia blast cells; Mean, N 11, On vorinostat, Pre mean 15.83, P 0.5279) was 17.56 (11), the “Percentage of cells expressing DcR1” value (Leukemia blast cells; Mean, N 11, On vorinostat, Pre mean 17.59, P 0.1364) was 25.97 (11) and the “Percentage of cells expressing DR4” value (Leukemia blast cells; Mean, N 14, On vorinostat, Pre mean 12.21, P 0.5498) was 13.82 (14). The “Percentage of cells expressing DR5” value (Leukemia blast cells; Mean, N 14, On vorinostat, Pre mean 14.75, P 0.3617) was 17.68 (14), the “DR4, DR5, DcR1, DcR2 expression, pre vs on vorinostat” value (Leukemia blast cells; two-sample paired t test or Wilcoxon signed-rank test) was “no significant differences” and the “DcR1, % Positive cells” value (HL-60/W [2]; 1 μmol/L vorinostat × 24 hours, untreated HL-60/W 23 ± 2) was 94.3 ±1.7%. For the same compound, the “DR5, % Positive cells” value (HL-60/W [2]; 1 μmol/L vorinostat × 24 hours, untreated HL-60/W 47.3 ± 27) was 84.2 ± 6.5%, the “DR4, % Positive cells” value (HL-60/W [2]; 1 μmol/L vorinostat × 24 hours, untreated HL-60/W 55.8 ±14) was 73.2 ±15% and the “DcR2, % Positive cells” value (HL-60/W [2]; 1 μmol/L vorinostat × 24 hours, untreated HL-60/W 56.2 ± 3) was 96.3 ±1.1%. For the same compound, the “DR4, DR5, DcR1, and DcR2 expression” value (HL-60/W [2]; 24-hour exposure to 1 μmol/L vorinostat, P < 0.02, t test) was “significantly increases”, the “BCRP mRNA expression, on vs pre vorinostat among all patients” value (BCRP [3]) was “no significant alteration” and the “BCRP function, on vs pre vorinostat” value (BCRP [4]) was “no difference in function”. The DLTs ([5]; DL1, 200 mg vorinostat p.o. twice a day) was “No DLTs”, the DLTs ([5]; DL2, 200 mg vorinostat 3 times a day, among 5 dose-escalation-evaluable patients) was 2 and the “patients with MDR1 expression increased in the on treatment samples” value (MDR1; 7 of 8 paired samples, 95% CI, 50%–99%) was 88%. The “MDR1 mRNA expression, on vs pre vorinostat among all patients” value (MDR1; paired t test, 8 paired samples) was “no significant alteration”, the “Pgp Protein, ON (Kolmogorov–Smirnov D value)” value (Pgp (ABCB1)) was 0.05 and 0.07 and 0.08 and the “Pgp function, on vs pre vorinostat” value (Pgp) was “no difference in function”. The “TRAIL death and decoy receptor expression” value (HL-60/W [6]) was “increased DR4 and DR5 expression, but not DcR1 or DcR2 expression”, the “interaction between vorinostat and etoposide” value [7] was “synergy” and the “interaction with anthracyclines and etoposide, in vitro cytotoxicity studies” value [7] was “additively or synergistically”. For the same compound, the “interaction, concomitant administration of cytarabine and vorinostat” value [7] was “antagonism”, the “interaction, sequential administration of vorinostat followed by cytarabine” value [7] was “synergism” and the “concentrations giving significant reduction in the percentage of S-phase cells” value ([7]; within 24 hours after in vitro exposure) was ≥ 1 µmol/L. For the same compound, the “BCRP Protein, ON (Kolmogorov–Smirnov D value)” value (BCRP (ABCG2); individual patients' blasts on vorinostat, D < 0.15 = no overexpression) was 0.05 and 0.15 and 0.19 and the “BCRP protein expression following treatment” value (BCRP (ABCG2); patients 17 and 24) was “slight decreases”.
